Patent US20260137773A1 (priority 2022, published 2026)

What was measured:
[1] = healthy volunteers; cited from earlier work
[2] = system: 4T1 mouse mammary gland carcinoma; assay type: in vivo; conditions: data not shown
complement activation = conditions: higher than Factor H; cited from earlier work

CC[C@H](C(=O)N1CCCC[C@H]1C(=O)O[C@H](CCc1ccc(OC)c(OC)c1)c1cccc(OCC(=O)NCCNC(=O)COc2cccc([C@@H](CCc3ccc(OC)c(OC)c3)OC(=O)[C@@H]3CCCCN3C(=O)[C@@H](CC)c3cc(OC)c(OC)c(OC)c3)c2)c1)c1cc(OC)c(OC)c(OC)c1 [AP1903]
safety [1]: proven safe

Versikine
tumor size, Versikine assessed alone [2]: did not significantly reduced tumor size

B1: miniFH (protein)
chain: EDCNELPPRRNTEILTGSWSDQTYPEGTQAIYKCRPGYRSLGNVIMVCRKGEWVALNPLRKCQKRPCGHPGDTPFGTFTLTGGNVFEYGVKAVYTCNEGYQLLGEINYRECDTDGWTNDIPICEVVKCLPVTAPENGKIVSSAMEPDREYHFGQAVRFVCNSGYKIEGDEEMHCSDDGFWSKEKPKCVEISCKSPDVINGSPISQKIIYKENERFQYKCNMGYEYSERGDAVCTESGWRPLPSCEEKSCDNPYIPNGDYSPLRIKHRTGDEITYQCRNGFYPATRGNTAKCTSTGWIPAPRCTSGSGGGGVDTTSCVNPPTVQNAYIVSRQMSKYPSGERVRYQCRSPYEMFGDEEVMCLNGNWTEPPQCKDSTGKCGPPPPIDNGDITSFPLSVYAPASSVEYQCQNLYQLEGNKRITCRNGQWSEPPKCLHPCVISREIMENYNIALRWTAKQKLYSRTGESVEFVCKRGYRLSSRSHTLRTTCWDGKLEYPTCAKR
modifications: REGION 1..499: note = miniFH POLYPEPTIDE
ex vivo potency to inhibit complement activation compared with FH (complement activation): ~10 fold
